Experimental data as given in BindingDB's records for doi:10.1016/j.bmcl.2006.08.117 (Johnson & Johnson Pharmaceutical, 2006).

Target: Histamine H4 receptor (Homo sapiens, UniProt Q9H3N8)
Assay: Radioligand Binding Assay
Conditions: pH 7.5; 25 °C
Description: The Ki values were calculated based on an experimentally determined appropriate Kd value according to Cheng and Prusoff.

Ki: 124 nM
SMILES: CN1CCN(CCCOc2ccc(-c3nc4cc(Cl)ccc4[nH]3)cc2)CC1 [5-chloro-2-{4-[3-(4-methylpiperazin-1-yl)propoxy]phenyl}-1H-1,3-benzodiazole]
